From US9637493B2, “Substituted pyrrolopyrimidines as HDM2 inhibitors” (Merck Sharp & Dohme Corp., priority 2012, dated 2017)
pIC50: −log10 of the molar value.

molecular target: HDM2 (Homo sapiens (Human), UniProt Q00987); experiment: HDM2 FRET assay (inhibition of p53 peptide binding to HDM2); settings: truncated HDM2 residues 17 to 125, 0.5 nM; FITC labeled 8-mer peptide 3 nM; two hour incubation at room temperature
Description: Methods: An HDM2 FRET assay was developed to assess the compounds' inhibitory activity towards binding of p53 protein. […] (containing p53 binding surface, Science (1994) 265, 346-355), with N-terminal His and Thioredoxin tag was generated in pET32a expression vector and expressed in E. coli strain BL21(DE3)Rosetta. Protein was purified using Ni-affinity chromatography, followed by size exclusion chromatography using Superdex 75 26/60 column. […] After two hour incubation at room temperature in a humidified chamber plates were read on EnVision plate reader with the following settings: excitation: UV, […], two emission filters: 520 nm and 495 nm respectively. […] IC50 DETERMINATIONS: Dose-response curves were plotted from the inhibition data, from 10 point serial dilutions of inhibitory compounds. Concentration of compound was plotted against em520/Cem495 ratio signal. To generate IC50 values, the dose-response curves were fitted to a standard sigmoidal curve and IC50 values were derived by nonlinear regression analysis.

Sequence of HDM2 (Q00987 17-125): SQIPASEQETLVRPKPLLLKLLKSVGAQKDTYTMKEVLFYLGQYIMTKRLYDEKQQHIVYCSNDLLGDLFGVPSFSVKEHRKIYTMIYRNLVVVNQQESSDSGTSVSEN

Structure (SMILES)	pIC50
Cc1cccc(-c2cc3nc(C(=O)O)nc(N[C@H](C)C4CCC4)c3n2Cc2ccc(C(F)(F)F)cn2)c1 [Example 2.2, 4-{[(1R)-1-cyclobutylethyl]amino}-6-(3-methylphenyl)-5-{[5-(trifluoromethyl)pyridin-2-yl]methyl}-5H-pyrrolo[3,2-d]pyrimidine-2-carboxylic acid]	6.07
Cc1cn(C[C@H]2CC[C@H](C)CC2)c2c(-c3cccc(Cl)c3)nc(-c3noc(=O)[nH]3)nc12 [Example 5.2, 3-{4-(3-chlorophenyl)-7-methyl-5-[(trans-4-methylcyclohexyl)methyl]-5H-pyrrolo[3,2-d]pyrimidin-2-yl}-1,2,4-oxadiazol-5(4H)-one]	6.97
Cc1cccc(-c2cc3nc(C(=O)O)nc(N[C@H](C)C4CCC4)c3n2Cc2ccc(Br)c(F)c2)c1 [Example 3.4, 5-(4-bromo-3-fluorobenzyl)-4-{[(1R)-1-cyclobutylethyl]amino}-6-(3-methylphenyl)-5H-pyrrolo[3,2-d]pyrimidine-2-carboxylic acid]	7.82
Cc1cccc(-c2cc3nc(C(=O)O)nc(N[C@H](C)C4CCC4)c3n2Cc2ccc(C(F)(F)F)cc2)c1 [Example 1.3, (R)-4-((1-cyclobutylethyl)amino)-6-(m-tolyl)-5-(4-(trifluoromethyl)benzyl)-5H-pyrrolo[3,2-d]pyrimidine-2-carboxylic acid]	6.85
Cc1cccc(-c2c(C)c3nc(C(=O)O)nc(N[C@H](C)C4CCC4)c3n2Cc2ccc(C(F)(F)F)cc2)c1 [Example 1.4, (R)-4-((1-cyclobutylethyl)amino)-7-methyl-6-(m-tolyl)-5-(4-(trifluoromethyl)benzyl)-5H-pyrrolo[3,2-d]pyrimidine-2-carboxylic acid]	6.89
C[C@H]1CC[C@H](Cn2c(C(F)c3ccccc3F)cc3nc(C(=O)O)nc(-c4cncc(Cl)c4)c32)CC1 (mixture of isomers) [Example 8.1, 4-(5-chloropyridin-3-yl)-6-[fluoro(2-fluorophenyl)methyl]-5-[(trans-4-methylcyclohexyl)methyl]-5H-pyrrolo[3,2-d]pyrimidine-2-carboxylic acid]	8.52
C[C@H]1CC[C@H](Cn2ccc3nc(C(=O)O)nc(-c4cncc(Cl)c4)c32)CC1 [Example 4.3, 4-(5-chloropyridin-3-yl)-5-[(trans-4-methylcyclohexyl)methyl]-5H-pyrrolo[3,2-d]pyrimidine-2-carboxylic acid]	6.61
Cc1ccnc(-c2cc3nc(C(=O)O)nc(N[C@H](C)C4CCC4)c3n2Cc2ccc(C(F)(F)F)cc2)c1 [Example 1.9, 4-{[(1R)-1-cyclobutylethyl]amino}-6-(4-methylpyridin-2-yl)-5-[4-(trifluoromethyl)benzyl]-5H-pyrrolo[3,2-d]pyrimidine-2-carboxylic acid]	7.74
COc1cc(OC(F)(F)F)ccc1Cn1c(-c2cccc(C)c2)cc2nc(C(=O)O)nc(N[C@H](C)C3CCC3)c21 [Example 2.5, 4-{[(1R)-1-cyclobutylethyl]amino}-5-[2-methoxy-4-(trifluoromethoxy)benzyl]-6-(3-methylphenyl)-5H-pyrrolo[3,2-d]pyrimidine-2-carboxylic acid]	5.36
CC(C)Cc1cn(C[C@H]2CC[C@H](C)CC2)c2c(-c3cncc(Cl)c3)nc(-c3noc(=O)[nH]3)nc12 [Example 5.8, 3-[4-(5-chloropyridin-3-yl)-5-[(trans-4-methylcyclohexyl)methyl]-7-(2-methylpropyl)-5H-pyrrolo[3,2-d]pyrimidin-2-yl]-1,2,4-oxadiazol-5(4H)-one]	7.46
Cc1cccc(-c2cc3nc(C(=O)O)nc(N[C@H](C)C4CCC4)c3n2Cc2ccc(C(F)(F)F)c(F)c2)c1 [Example 2.7, 4-{[(1R)-1-cyclobutylethyl]amino}-5-[3-fluoro-4-(trifluoromethyl)benzyl]-6-(3-methylphenyl)-5H-pyrrolo[3,2-d]pyrimidine-2-carboxylic acid]	7.06
C[C@H]1CC[C@H](Cn2cc(Cc3ccccc3)c3nc(-c4n[nH]c(=O)o4)nc(-c4cncc(Cl)c4)c32)CC1 [Example 5.6, 5-{7-benzyl-4-(5-chloropyridin-3-yl)-5-[(trans-4-methylcyclohexyl)methyl]-5H-pyrrolo[3,2-d]pyrimidin-2-yl}-1,3,4-oxadiazol-2(3H)-one]	7.27
Cc1cccc(-c2cc3nc(C(=O)O)nc(N[C@H](C)C4CCC4)c3n2Cc2ccc(OC(F)(F)F)cc2)c1 [Example 2.3, 4-{[(1R)-1-cyclobutylethyl]amino}-6-(3-methylphenyl)-5-[4-(trifluoromethoxy)benzyl]-5H-pyrrolo[3,2-d]pyrimidine-2-carboxylic acid]	6.46
Cc1ccc(F)c(-c2cn(Cc3ccc(C(F)(F)F)cc3)c3c(N[C@H](C)C4CCC4)nc(C(=O)O)nc23)c1 [Example 1.2, (R)-4-((1-cyclobutylethyl)amino)-7-(2-fluoro-5-methylphenyl)-5-(4-(trifluoromethyl)benzyl)-5H-pyrrolo[3,2-d]pyrimidine-2-carboxylic acid]	6.45
Cc1ccc(F)c(-c2cc3nc(C(=O)O)nc(N[C@H](C)C4CCC4)c3n2Cc2ccc(C(F)(F)F)cc2)c1 [Example 1.1, (R)-4-((1-cyclobutylethyl)amino)-6-(2-fluoro-5-methylphenyl)-5-(4-(trifluoromethyl)benzyl)-5H-pyrrolo[3,2-d]pyrimidine-2-carboxylic acid]	7.21
COc1ccc(Cn2c(-c3cccc(C)c3)cc3nc(C(=O)O)nc(N[C@H](C)C4CCC4)c32)cc1 [Example 2.8, 4-{[(1R)-1-cyclobutylethyl]amino}-5-(4-methoxybenzyl)-6-(3-methylphenyl)-5H-pyrrolo[3,2-d]pyrimidine-2-carboxylic acid]	5.21
Cc1cccc(-c2cc3nc(C(=O)O)nc(N[C@H](C)C4CCC4)c3n2Cc2ccc(OC(F)F)cc2)c1 [Example 2.6, 4-{[(1R)-1-cyclobutylethyl]amino}-5-[4-(difluoromethoxy)benzyl]-6-(3-methylphenyl)-5H-pyrrolo[3,2-d]pyrimidine-2-carboxylic acid]	5.75
CC(C)c1ccnc(-c2cc3nc(C(=O)O)nc(N[C@H](C)C4CCC4)c3n2Cc2ccc(C(F)(F)F)cc2)c1 [Example 1.10, 4-{[(1R)-1-cyclobutylethyl]amino}-6-[4-(1-methylethyl)pyridin-2-yl]-5-[4-(trifluoromethyl)benzyl]-5H-pyrrolo[3,2-d]pyrimidine-2-carboxylic acid]	7.59
C[C@H]1CC[C@H](Cn2ccc3nc(-c4n[nH]c(=O)o4)nc(-c4cncc(Cl)c4)c32)CC1 [Example 4.5, 5-{4-(5-chloropyridin-3-yl)-5-[(trans-4-methylcyclohexyl)methyl]-5H-pyrrolo[3,2-d]pyrimidin-2-yl}-1,3,4-oxadiazol-2(3H)-one]	7.02
C[C@H]1CC[C@H](Cn2cc(Cc3cccnc3)c3nc(-c4noc(=O)[nH]4)nc(-c4cncc(Cl)c4)c32)CC1 [Example 7.1, 3-[4-(5-chloropyridin-3-yl)-5-[(trans-4-methylcyclohexyl)methyl]-7-(pyridin-3-ylmethyl)-5H-pyrrolo[3,2-d]pyrimidin-2-yl]-1,2,4-oxadiazol-5(4H)-one]	7.28
Cc1cccc(-c2cc3nc(C(=O)O)nc(N[C@H](C)C4CCC4)c3n2Cc2ccc(C(F)(F)F)cc2N)c1 [Example 2.1, 5-[2-amino-4-(trifluoromethyl)benzyl]-4-{[(1R)-1-cyclobutylethyl]amino}-6-(3-methylphenyl)-5H-pyrrolo[3,2-d]pyrimidine-2-carboxylic acid]	7.96
C[C@H]1CC[C@H](Cn2cc(-c3ccccc3)c3nc(C(=O)O)nc(-c4cncc(Cl)c4)c32)CC1 [Example 5.5, 4-(5-chloropyridin-3-yl)-5-[(trans-4-methylcyclohexyl)methyl]-7-phenyl-5H-pyrrolo[3,2-d]pyrimidine-2-carboxylic acid]	7.14
Cc1cccc(-c2cc3nc(C(=O)O)nc(N[C@H](C)C4CCC4)c3n2Cc2ccc(C(F)(F)F)nc2)c1 [Example 3.3, 4-{[(1R)-1-cyclobutylethyl]amino}-6-(3-methylphenyl)-5-{[6-(trifluoromethyl)pyridin-3-yl]methyl}-5H-pyrrolo[3,2-d]pyrimidine-2-carboxylic acid]	6.75
C[C@H]1CC[C@H](Cn2ccc3nc(C(=O)O)nc(-c4cccc(Cl)c4)c32)CC1 [Example 4.1, 4-(3-chlorophenyl)-5-[(trans-4-methylcyclohexyl)methyl]-5H-pyrrolo[3,2-d]pyrimidine-2-carboxylic acid]	6.53
C[C@H]1CC[C@H](Cn2cc(CCc3cccnc3)c3nc(C(=O)O)nc(-c4cncc(Cl)c4)c32)CC1 [Example 6.1, 4-(5-chloropyridin-3-yl)-5-[(trans-4-methylcyclohexyl)methyl]-7-(2-pyridin-3-ylethyl)-5H-pyrrolo[3,2-d]pyrimidine-2-carboxylic acid]	7.33
Cc1cccc(-c2cc3nc(C(=O)O)nc(N[C@H](C)C4CCC4)c3n2Cc2ccc(Cl)c(F)c2)c1 [Example 3.1, 5-(4-chloro-3-fluorobenzyl)-4-{[(1R)-1-cyclobutylethyl]amino}-6-(3-methylphenyl)-5H-pyrrolo[3,2-d]pyrimidine-2-carboxylic acid]	7.68
Cc1c(-c2cc(C(C)C)ccn2)n(Cc2ccc(C(F)(F)F)cc2)c2c(N[C@H](C)C3CCC3)nc(C(=O)O)nc12 [Example 1.11, 4-{[(1R)-1-cyclobutylethyl]amino}-7-methyl-6-[4-(1-methylethyl)pyridin-2-yl]-5-[4-(trifluoromethyl)benzyl]-5H-pyrrolo[3,2-d]pyrimidine-2-carboxylic acid]	7.30
